# From patent US9539233B2, “Gallium formulation for the treatment and prevention of infectious diseases” (Aridis Pharmaceuticals Inc., priority 2009, dated 2017)
# Like-named read-outs stand apart in the source and are kept apart here.
# Legend:
# P. aeruginosa = settings: for MIC: iron-starved BM-2 broth
# Pa [1] = settings: i.t. inoculation of a lethal dose of Pa followed by nasal instillation of a bolus of liquid; mouse; cited from earlier work
# Pa [2] = settings: against Pa; cited from earlier work
# B. anthracis 7702 cells = assay type: cell-based; settings: 1:1 gallium-to-citrate molar ratio, approximately 20 hours of growth
smiles,measurement,setting,value
NC[C@H]1O[C@H](O[C@H]2[C@H](O)[C@@H](O[C@H]3O[C@H](CO)[C@@H](O)[C@H](N)[C@H]3O)[C@H](N)C[C@@H]2N)[C@H](N)C[C@@H]1O [Tobramycin],susceptibility category (R/S/I),P. aeruginosa; Mucoid Strain 20JR,S
same,susceptibility category (R/S/I),P. aeruginosa; Mucoid Strain 35LK,I
same,susceptibility category (R/S/I),P. aeruginosa; Mucoid Strain 41JQ,R
same,susceptibility category (R/S/I),P. aeruginosa; Mucoid Strain 47JS,R
same,susceptibility category (R/S/I),P. aeruginosa; Mucoid Strain 62LL,S
same,susceptibility category (R/S/I),P. aeruginosa; Mucoid Strain 96JC,R
same,susceptibility category (R/S/I),P. aeruginosa; Mucoid Strain 97JE,R
same,susceptibility category (R/S/I),P. aeruginosa; Non-mucoid Strain 9HN,R
same,susceptibility category (R/S/I),P. aeruginosa; Non-mucoid Strain 30IX,R
same,susceptibility category (R/S/I),P. aeruginosa; Non-mucoid Strain 30JS,S
same,susceptibility category (R/S/I),P. aeruginosa; Non-mucoid Strain 38LL,I
same,susceptibility category (R/S/I),P. aeruginosa; Non-mucoid Strain 39IV,S
same,susceptibility category (R/S/I),P. aeruginosa; Non-mucoid Strain 46IV,R
same,susceptibility category (R/S/I),P. aeruginosa; Non-mucoid Strain 55HY,R
same,MIC,"P. aeruginosa; Pseudomonas aeruginosa, 24 h, Non-mucoid Strain 9HN",128 µg/mL
same,MIC,"P. aeruginosa; Pseudomonas aeruginosa, 24 h, Non-mucoid Strain 55HY",128 µg/mL
C[C@H]1[C@H](NC(=O)/C(=N\OC(C)(C)C(=O)O)c2csc(N)n2)C(=O)N1S(=O)(=O)O [Aztreonam],susceptibility category (R/S/I),P. aeruginosa; Mucoid Strain 20JR,S
same,susceptibility category (R/S/I),P. aeruginosa; Mucoid Strain 35LK,S
same,susceptibility category (R/S/I),P. aeruginosa; Mucoid Strain 41JQ,R
same,susceptibility category (R/S/I),P. aeruginosa; Mucoid Strain 47JS,I
same,susceptibility category (R/S/I),P. aeruginosa; Mucoid Strain 62LL,R
same,susceptibility category (R/S/I),P. aeruginosa; Mucoid Strain 96JC,R
same,susceptibility category (R/S/I),P. aeruginosa; Mucoid Strain 97JE,R
same,susceptibility category (R/S/I),P. aeruginosa; Non-mucoid Strain 9HN,R
same,susceptibility category (R/S/I),P. aeruginosa; Non-mucoid Strain 30IX,S
same,susceptibility category (R/S/I),P. aeruginosa; Non-mucoid Strain 30JS,S
same,susceptibility category (R/S/I),P. aeruginosa; Non-mucoid Strain 38LL,R
same,susceptibility category (R/S/I),P. aeruginosa; Non-mucoid Strain 39IV,R
same,susceptibility category (R/S/I),P. aeruginosa; Non-mucoid Strain 46IV,R
same,susceptibility category (R/S/I),P. aeruginosa; Non-mucoid Strain 55HY,I
"O=[N+]([O-])[O-].O=[N+]([O-])[O-].O=[N+]([O-])[O-].[Ga+3] [Gallium, gallium nitrate]",protection,Pa [1],good protection
same,bactericidal concentration (MBC),Pa [2],approximately 0.7 μg/mL
same,minimum inhibitory concentration (MIC90),Pa [2],approximately 0.7 μg/mL
same,MIC,"P. aeruginosa; Mucoid Strain 20JR, 24 hours",<1 µg/mL
same,MIC,"P. aeruginosa; Mucoid Strain 35LK, 24 hours",<1 µg/mL
same,MIC,"P. aeruginosa; Mucoid Strain 41JQ, 24 hours",<32 µg/mL
same,MIC,"P. aeruginosa; Mucoid Strain 47JS, 24 hours",<1 µg/mL
same,MIC,"P. aeruginosa; Mucoid Strain 62LL, 24 hours",<1 µg/mL
same,MIC,"P. aeruginosa; Mucoid Strain 96JC, 24 hours",<1 µg/mL
same,MIC,"P. aeruginosa; Mucoid Strain 97JE, 24 hours",<1 µg/mL
same,MIC,"P. aeruginosa; Non-mucoid Strain 9HN, 24 hours",<2 µg/mL
same,MIC,"P. aeruginosa; Non-mucoid Strain 30IX, 24 hours",<1 µg/mL
same,MIC,"P. aeruginosa; Non-mucoid Strain 30JS, 24 hours",<1 µg/mL
same,MIC,"P. aeruginosa; Non-mucoid Strain 38LL, 24 hours",<1 µg/mL
same,MIC,"P. aeruginosa; Non-mucoid Strain 39IV, 24 hours",<1 µg/mL
same,MIC,"P. aeruginosa; Non-mucoid Strain 46IV, 24 hours",<1 µg/mL
same,MIC,"P. aeruginosa; Non-mucoid Strain 55HY, 24 hours",<1 µg/mL
same,OD600 nm,"B. anthracis 7702 cells; Gallium concentration 6.8 μM, TSB, 37° C.",0.000
same,OD600 nm,B. anthracis 7702 cells; Gallium concentration 23.3 μM,0.000
same,OD600 nm,B. anthracis 7702 cells; Gallium concentration 27.1 μM,0.001
same,OD600 nm,B. anthracis 7702 cells; Gallium concentration 88.9 μM,0.003
same,OD600 nm,B. anthracis 7702 cells; Gallium concentration 614.8 μM,0.000
same,OD600 nm,B. anthracis 7702 cells; Gallium concentration 1709.9 μM,0.000
